Data from patent publication US20170095578A1, “CT SCANS USING GADOLINIUM-BASED CONTRAST AGENT” (UNIVERSITY OF MASSACHUSETTS MEDICAL SCHOOL, priority 2014, published 2017).

What was measured:
[1] = gadoxetate disodium-enhanced CT scan of a human patient; assay type: in vivo
Method: (§1) A patient was undergoing evaluation for living liver donation.
FIG. 7A is an enhanced CT scan image of their liver using gadoxetate disodium as a contract agent according to principles of the invention. […] In this particular patient the CT scan was obtained 99 minutes after the gadoxetate disodium-enhanced MRI shown in FIG. 7B, a relatively long interval to image gallbladder filling. A better contrast resolution is expected when using shorter interval. The highest concentration of contrast within the gallbladder, and therefore the best contrast resolution, is expected between 30 to 60 minutes from the time of intravenous injection of contrast.
The CT scan technique used included a slice thickness of 4.00 mm, and a field of view of 283.0 mm. The x-ray radiation was generated using 120 kV and a current of 182 mA, with a tube current of 182 mA and tube current-time product of 213 mAs.

[2] = gadoxetate disodium-enhanced MRI of the same patient; assay type: in vivo, human; details: MRI 20 minutes following intravenous administration
Method: as §1
FIG. 7B is a gadoxetate disodium-enhanced MRI image of the same patient. […] The MRI of FIG. 7B was obtained 20 minutes following intravenous administration of gadoxetate disodium.

SMILES: CCOc1ccc(CC(CN(CCN(CC(=O)[O-])CC(=O)[O-])CC(=O)[O-])N(CC(=O)[O-])CC(=O)[O-])cc1.[Gd+3].[Na+].[Na+] (stereo not drawn) [gadoxetate disodium, Gadoxetate disodium]
- gallbladder opacification under CT imaging conditions ([1]; following intravenous injection): clearly demonstrates gallbladder opacification
- visualization of excreted hepatobiliary contrast in the gallbladder on CT ([1]; patient, arterial phase CT at 120 kV, 182 mA, 99 minutes after the gadoxetate disodium-enhanced MRI): anti-dependant hyperdensity within the gallbladder fundus
- visualization of excreted contrast in the gallbladder on MRI [2]: excreted contrast within the gallbladder lumen
